# Patent publication US20090042949A1, “Indoles Useful in the Treatment of Inflammation” (priority 2005, published 2009)
# Target: T1, mPGES-1 (Homo sapiens, UniProt O14684)
# T1 construct: made in house; host or cells: E. coli
# T1 sequence (O14684 1-152): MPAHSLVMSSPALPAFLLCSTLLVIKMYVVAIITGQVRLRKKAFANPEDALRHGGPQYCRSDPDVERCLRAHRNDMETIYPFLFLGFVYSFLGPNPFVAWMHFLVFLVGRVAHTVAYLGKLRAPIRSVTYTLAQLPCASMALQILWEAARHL
# Test: mPGES-1 biological test (conversion of PGH2 to PGE2, HPLC analysis)
# Type: biochemical
# Conditions: mPGES-1 expressed in E. coli, membrane fraction; 25 min preincubation with inhibitor, 60 s with PGH2, room temperature
# Protocol: In the assay mPGES-1 catalyses the reaction where the substrate PGH2 is converted to PGE2. mPGES-1 is expressed in E. coli and the membrane fraction is dissolved in 20 mM NaPi-buffer pH 8.0 and stored at −80° C. In the assay mPGES-1 is dissolved in 0.1 M KPi-buffer pH 7.35 with 2.5 mM glutathione. The stop solution consists of H2O/MeCN (7/3), containing FeCl2 (25 mM) and HCl (0.15 M). The assay is performed at room temperature in 96-well plates. Analysis of the amount of PGE2 is performed with reversed phase HPLC (Waters 2795 equipped with a 3.9×150 mm C18 column). The mobile phase consists of H2O/MeCN (7/3), containing TFA (0.056%), and absorbance is measured at 195 nm with a Waters 2487 UV-detector.
# The following is added chronologically to each well: • 1. 100 μL mPGES-1 in KPi-buffer with glutathione. Total protein concentration: 0.02 mg/mL. • 2. 1 μL inhibitor in DMSO. Incubation of the plate at room temperature for 25 minutes. • 3. 4 μL of a 0.25 mM PGH2 solution. Incubation of the plate at room temperature for 60 seconds. • 4. 100 μL stop solution. • 180 μL per sample is analyzed with HPLC.
row,SMILES,IC50
1,"CC(C)(C)c1ccc(-c2ccc3c(c2)cc(C(=O)NCCS(=O)(=O)O)n3-c2ccc(OC3CCCC3)cc2)cc1 [Example 2, 2-{[5-(4-tert-Butylphenyl)-1-(4-cyclopentyloxyphenyl)indole-2-carbonyl]-amino}ethanesulfonic acid]",660 nM
2,"CN(CC(=O)O)C(=O)c1cc2cc(-c3ccc(C(C)(C)C)cc3)ccc2n1-c1ccc(OC2CCCC2)cc1 [Example 5, {[5-(4-tert-Butylphenyl)-1-(4-cyclopentyloxyphenyl)indole-2-carbonyl]-methylamino}acetic acid]",740 nM
3,"CC(C)(C)c1ccc(-c2ccc3c(c2)cc(C(=O)Nn2cnnc2)n3-c2ccc(OC3CCCC3)cc2)cc1 [Example 12, 5-(4-tert-Butylphenyl)-1-(4-cyclopentyloxyphenyl)indole-2-carboxylic acid[1,2,4]triazol-4-ylamide]",550 nM

# Further lines, results first:
row,IC50,SMILES
1,1900 nM,"CC(C)(C)c1ccc(-c2ccc3c(c2)cc(C(=O)NCC(=O)O)n3-c2ccc(OC3CCCC3)cc2)cc1 [Example 4, {[5-(4-tert-Butylphenyl)-1-(4-cyclopentyloxyphenyl)indole-2-carbonyl]-amino}acetic acid]"
2,2700 nM,"CC(C)Oc1ccc(-n2c(C(=O)NS(C)(=O)=O)c(Cl)c3cc(-c4ccc(C(F)(F)F)cn4)ccc32)cc1 [Example 13, N-[3-Chloro-1-(4-isopropoxyphenyl)-5-(5-trifluoromethylpyridin-2-yl)indole-2-carbonyl]methanesulfonamide]"
